Laboratory results from patent publication US5759556A, “Skin care compositions containing certain cyclic aliphatic unsaturated compounds and retinol or retinyl ester” (Chesebrough-Pond's USA Co., Division of Conopco, Inc., priority 1996, dated 1998).
Like-named read-outs stand apart in the source and are kept apart here. Values belong to the compound of their own block, whether it stands above or below them.

Key:
[1] = test system: keratinocytes; experiment: 3H-Thymidine incorporation and keratinocyte proliferation (Example 1A); assay type: cell-based, Human; conditions: for mean Thymidine incorp./μg protein ± s.d: 24 hours, n = 3
Procedure: (§1) Human keratinocytes, isolated from neonatal foreskin by trypsin treatment were grown in Dulbecco Modification Eagle (DME) Hams F12 (1:1) medium/10% fetal calf serum in the presence of irradiated 3T3 mouse fibroblasts for establishing dividing keratinocyte colonies. Cells were grown under the above condition until their second passage and kept frozen for future use. Frozen second passage keratinocytes were thawed and plated into the above medium and grown for five days before they were switched to a serum-free MCDB 153-based medium keratinocyte growth medium (KGM) from Clonetics Corporation, San Diego, Calif., containing 0.15 mM Ca, or keratinocyte serum-free media (KSFM) from GIBCO containing 0.09 mM Ca). On day 7, when the cells were 80-90% confluent, they were trypsinized and plated in the serum-free medium for the various experiments.
The incorporation of ^3 H-thymidine by cultured keratinocytes was used as an assay of keratinocyte proliferation. Thymidine is one of four deoxynucleosides which are the monomeric units of DNA, the universal library of genetic information in the animal kingdom. Prior to cell division of a somatic cell such as a keratinocyte, the complete genome of the cell undergoing cell division is replicated. This involves large scale DNA synthesis by the cell and enables both daughter cells to receive identical copies of the genetic material. When ^3 H-thymidine is included in the culture media of keratinocytes which are synthesizing DNA in preparation for cell division then the labelled nucleoside is incorporated into the newly synthesized DNA. The extent of incorporation of ^3 H-thymidine into a population of cells is proportional to the rate of DNA synthesis by this population of cells and therefore an indication of their cellular proliferation.
Keratinocytes (that were cultured as described above) were plated in 24 well plates at a density of about 20,000 cells per well in 1 ml media. After incubation for four days or until the cells were 60-70% confluent, the media was changed. Test compounds were added (in triplicate) to the wells 24 hours after the media change, and four hours later 1μCi ^3 H-Thymidine in 50 μl media was added per well. Cells were incubated for a further 24 hours. Media was removed from the cells, 10% ice cold trichloroacetic acid (TCA) added and plates were incubated on ice for 30 minutes. Cells were washed five times with 5% TCA and allowed to dissolve in 500 μl 0.1M NaOH for at least one hour (usually overnight). The preparations were neutralized with 0.1M HCl; 50 μl of the cell preparation was used to determine total protein content. Disintegrations per minute (DPM) from ^3 H labelling of DNA was determined by liquid scintillation counting of 900 μl of the cell preparation. Thymidine incorporation results were expressed as DPM/μg protein.

[2] = test system: keratinocytes; experiment: Transglutaminase assay, keratinocyte differentiation (Example 4), normalized to DNA; assay type: cell-based, Human; conditions: for activity at […]: .00025 mM; for effect on transglutaminase / keratinocyte differentiation (in words): Table D, both experiments; for activity at 1000 µM: 1 mM
Procedure: as §1
(§2) During the process of terminal differentiation in the epidermis, a 15 nm thick layer of protein, known as the cornified envelope (CE) is formed on the inner surface of the cell periphery. The CE is composed of numerous distinct proteins which have been cross-linked together by the formation of N ^ε -(γ-glutamyl) lysine isodipeptide bonds catalyzed by the action of at least two different transglutaminases (TGases) expressed in the epidermis. TGase I is expressed in abundance in the differentiated layers of the epidermis, especially the granular layer, but is absent in the undifferentiated basal epidermis. Thus TGase I is a useful marker of epidermal keratinocyte differentiation with high TGase I levels indicating a more differentiated state. An ELISA based TGase I assay, using a TGase I antibody, was used to assess the state of differentiation of the cultured keratinocytes in the examples that follow.
Keratinocytes (cultured as described above) were plated in 96 well plates at a density of 3,000 cells per well in 200 μl of cell culture media. After incubation for four days, the media was changed to media containing test compounds (six replicates per test). The cells were cultured for a further 72 hours after which time the media was aspirated and the plates stored at -70° C. After the plates were removed from the freezer, the cells were further freezed fractured by freezing and thawing and then washed 3× with PBS. The cells were incubated for one hour at room temperature (R/T) with TBS/5% BSA buffer. Cells were then incubated with 100 μl of monoclonal anti-human transglutaminase (IgG) mouse antibody (primary antibody) obtained from Biomedical Technologies Inc. diluted 1:2000 in TBS/1% BSA buffer for two hours at 37° C., and then rinsed six times with wash buffer (TBS/1% BSA/0.05% Tween-20). Cells were next incubated with 100 μl of Fab fragment, peroxidase conjugated anti-mouse IgG antibody (secondary antibody) from Amersham diluted 1:4,000 in wash buffer for two hours at 37° C. and then rinsed three times with wash buffer and three times with PBS. Cells were incubated with substrate solution (4 mg o-phenylene diamine and 3.3 μl 30% H2 O2 in 10 mL 0.1M citrate buffer, pH 5.0) for five minutes at R/T and in darkness (under aluminum foil). The reaction was stopped by the addition of 50 μl 4N H2SO4. The absorbance of samples was read at 492 nm in the plate reader. Out of the six replicates, four were treated with both antibodies, two were treated only with the secondary antibody (i.e., to determine the background binding of the enzyme conjugated antibody). Transglutaminase I levels were determined by subtracted background from the readings from each treatment and determining the mean s.d. for the replicates exposed to both antibodies.
The level of TGase-1 detected after treatment of the cells could be influenced by cell number, i.e., the greater the number of cells the greater the level of TGase-1 detected. The level of TGase-1 was normalized to DNA content of the cells in the same well thus eliminating variation due to differences in cell number. […]

[3] = test system: keratinocytes; experiment: Transglutaminase assay and keratinocyte differentiation, TGase normalized to DNA (Example 1B); assay type: cell-based, Human; conditions: for keratinocyte differentiation / transglutaminase level (in words): […]10^-7 M, […]10^-8 M and […]10^-9 M, vs ethanol control; for mean TGase/DNA × 10^-4 ± s.d: 72 hours, n = 3
Procedure: as §1, §2
Keratinocytes (cultured as described above) were plated in 96 well plates at a density of 3,000 cells per well in 200 μl media. After incubation for four days the media was changed to media containing test compounds (six replicates per test). The cells were cultured for a further 72 hours after which time the media was aspirated and the plates stored at -70° C. Plates were removed from the freezer, and the cells washed with PBS. 100 μl sterile water was added and the cells were freeze fractured by freezing at -70° C. then thawing. The cells were incubated for one hour at room temperature (R/T) with PBS/3% BSA (wash buffer, bovine serum albumin), then rinsed with a fresh aliquot of wash buffer. Cells were incubated with 50 μl of primary antibodies monoclonal anti-human transglutaminase mouse antibody (IgG) obtained from Biomedical Industries diluted 1:2,000 in wash buffer for one hour, 37° C. then rinsed two times with wash buffer. Cells were then incubated with 50 μl of secondary antibody (Fab fragment, peroxidase conjugated anti-mouse IgG obtaining from Amersham) diluted 1:4,000 in wash buffer for one hour at 37° C., then rinsed two times with wash buffer. […] The absorbance of samples was read at 492 nm in the plate reader. […] TGase levels were determined by subtracting background from the readings from each treatment and determining mean±s.d. for the replicates exposed to both Ab.
The level of TGase-1 detected after treatment of the cells could be influenced by cell number, i.e., the greater the number of cells the greater the level of TGase-1 detected. […]

[4] = target: T1, LRAT (Bos taurus, UniProt Q9BGL2); experiment: In vitro microsomal esterification of retinol, LRAT catalyzed (retinyl laurate formation); assay type: biochemical, bovine; conditions: for inhibition at 10 µM: Table B
T1 construct: microsomal fraction isolated from bovine retinal pigment epithelial cells; from tissue; host or cells: bovine retinal pigment epithelial cells, microsomal fraction
T1 sequence (Q9BGL2 1-230): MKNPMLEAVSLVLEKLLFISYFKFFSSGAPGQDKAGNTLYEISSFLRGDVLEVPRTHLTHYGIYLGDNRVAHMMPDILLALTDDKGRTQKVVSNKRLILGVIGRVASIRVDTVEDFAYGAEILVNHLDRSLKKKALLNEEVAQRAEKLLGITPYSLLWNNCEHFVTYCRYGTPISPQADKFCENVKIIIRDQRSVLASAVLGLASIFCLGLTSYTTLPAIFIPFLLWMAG

[5] = Homo sapiens, Keratinocyte, Experiment 2, read-out: Transglutaminase level, % CONTROL

SMILES: CC1=C(/C=C/C(C)=C/C=C/C(C)=C/C(=O)O)C(C)(C)CCC1 [Retinoic acid]
keratinocyte proliferation (in words) ([1]; […]10^-7 M, […]10^-8 and […]10^-9 M, over ethanol control and each retinol treatment): significantly increased keratinocyte proliferation | mean Thymidine incorp./μg protein ± s.d ([1]; […] 10^-7 M): 2475 ± 116 DPM/μg protein | mean Thymidine incorp./μg protein ± s.d ([1]; […] 10^-8 M): 2686 ± 72 DPM/μg protein | mean Thymidine incorp./μg protein ± s.d ([1]; […] 10^-9 M): 2556 ± 80 DPM/μg protein | activity at […] ([2]; Homo sapiens, Keratinocyte, read-out: Transglutaminase level, % CONTROL, Experiment 1): 24% | activity at […] ([2]; Homo sapiens, Keratinocyte, read-out: Transglutaminase level, % CONTROL, Experiment 2): 8% | keratinocyte differentiation / transglutaminase level (in words) [3]: decreased keratinocyte differentiation

SMILES: CC1=C(/C=C/C(C)=C/C=C/C(C)=C/CO)C(C)(C)CCC1 [Retinol]
mean Thymidine incorp./μg protein ± s.d ([1]; […] 10^-7 M): 2218 ± 73 DPM/μg protein | mean Thymidine incorp./μg protein ± s.d ([1]; […] 10^-8 M): 2034 ± 46 DPM/μg protein | mean Thymidine incorp./μg protein ± s.d ([1]; […] 10^-9 M): 1977 ± 19 DPM/μg protein | activity at 1 µM ([2]; Homo sapiens, Keratinocyte, Experiment 1, .001 mM, read-out: Transglutaminase level, % CONTROL): 67% | activity at […] [2, 5]: 63.5% | effect on transglutaminase / keratinocyte differentiation (in words) [2]: not very effective | keratinocyte differentiation / transglutaminase level (in words) [3]: The decrease in transglutaminase level was dose dependent | mean TGase/DNA × 10^-4 ± s.d ([3]; […] 10^-7 M): 1.14 ± 0.22 × 10^-4 | mean TGase/DNA × 10^-4 ± s.d ([3]; […] 10^-8 M): 1.89 ± 0.30 × 10^-4 | mean TGase/DNA × 10^-4 ± s.d ([3]; […] 10^-9 M): 2.70 ± 0.59 × 10^-4

SMILES: C=CCCC(=O)/C=C/C1C(C)=CCCC1(C)C (stereo not drawn) [allyl alpha ionone]
inhibition at 10 µM [4]: 17%

SMILES: C/C=C/C(=O)C1C(C)=CCCC1(C)C (stereo not drawn) [alpha damascone]
activity at 1000 µM ([2]; Homo sapiens, Keratinocyte, Experiment 1, read-out: Transglutaminase level, % CONTROL): 92% | activity at 1000 µM [2, 5]: 86% | effect on transglutaminase / keratinocyte differentiation (in words) [2]: not very effective

SMILES: CC(=O)CCC1C(C)=CCCC1(C)C (stereo not drawn) [dihydro alpha ionone]
inhibition at 100 µM ([4]; Table C (comparative), 100 μM): 18%

Now from value to compound:

inhibition at 100 µM ([4]; Table A, 100 μM): 79% | inhibition at 10 µM [4]: 29%
SMILES: C/C=C/C(=O)C1C(C)=CC=CC1(C)C (stereo not drawn) [damascenone]

inhibition at 100 µM ([4]; Table A, 100 μM): 38%
SMILES: C=C1CCCC(C)(C)C1/C=C/C(=O)CC (stereo not drawn) [gamma methyl ionone]

% INHIBITION, LRAT ([4]; Table C (comparative), 100 μM): 0%
SMILES: CC(C)[C@@H]1CC[C@@H](C)CC1=O [mentone]

inhibition at 100 µM ([4]; Table A, 100 μM): 33%
SMILES: CCCC(O)CCC1C(C)CCCC1(C)C (stereo not drawn) [timberol]
